Reference: patent publication US10897901B2, “Herbicidal composition” (FMC Corporation, priority 2007, dated 2021)

Legend:
Type in all cases: in vivo
[1] = test system: Red River crabgrass (Digitaria ciliaris); test: Example 3 post-emergence greenhouse pot test, crabgrass
Description: Test compositions containing sulfentrazone (DISMISS™ Turf Herbicide), quniclorac, (DRIVE® 75 DF Herbicide) or mixture of sulfentrazone and quinclorac in a three to one ratio, prepared as described above, were diluted with water to provide the appropriate test rate concentrations. A nonionic surfactant (0.25%) was added to each test solution.
The test weeds include Red River crabgrass (Digitaria ciliaris) and yellow nutsedge (Cyperus esculentusi).
(§1) For post-emergence testing, three disposable 3 inch square pots for each rate of application of each herbicide were filled with a soil, comprised of peat moss, vermiculite, bark ash, pine bark, limestone and a wetting agent, to which 8 to 10 seeds were planted. The pots were placed in a greenhouse and watered daily, thus allowing the seeds to germinate and the foliage to develop.
(§2) Pots designated for treatment were placed on a conveyor belt and the conveyor belt fed under a spray nozzle mounted about ten inches above the foliage. The spray of herbicidal solution was commenced and once stabilized; the pots were passed under the spray at a speed to receive a coverage equivalent of 30 gallons per acre. The application rates are those shown in Table 3 below for the individual herbicidal solutions and the mixture of sulfentrazone and quinclorac. The post-emergence pots were immediately placed in the green-house and not watered until 24 hours after treatment with the test solution. Thereafter they were regularly watered at ground level. The control of weeds was evaluated in each experimental test from 1 to 22 days after treatment (DAT). The results, shown as an average of the replications, were compared with results observed in untreated control pots in the same tests.
(§3) Percent control was determined by a method similar to the 0 to 100 rating system disclosed in “Research Methods in Weed Science,” 2nd ed., B. Truelove, Ed.; Southern Weed Science Society; Auburn University, Auburn, Ala., 1977.

[2] = test system: Chickweed (Stellaria media); test: Example 4 post-emergence greenhouse pot test, chickweed; conditions: 0.25 lb ai/acre
Description: (§4) Test compositions containing sulfentrazone (75 DF formulation), quniclorac, (DRIVE® 75 DF Herbicide) or mixtures of sulfentrazone and quinclorac at ratios of 1:1 to 1:5, were diluted with water to provide the appropriate test rate concentrations. A nonionic surfactant (0.25%) was added to each test solution. The test weeds include crabgrass (Digitaria sp), Chickweed (Stellaria media), Hemp Sesbania (Sesbania exaltata), Kochia (Kochia scoparia), Ivyleaf Morningglory (Ipomoea hederacea), Redroot Pigweed (Amaranthus retroflexus) and yellow nutsedge (Cyperus esculentusi).
as §1, with “develop for 22 days, 3 months for Kochia.” for “develop.”
as §2, with “Table 4” for “Table 3”, “from 2” for “from 1”, “to 20” for “to 22”
as §3

[3] = test system: Blackseed Plantain (Plantago rugelii); test: Example 1 post-emergent turf plot test, plantain; conditions: 0.57 lb ai/acre
Description: The experimental design used randomized plots with post-emergent treatment and three replications per test trial. The size of each experimental plot was 4 feet by 6 feet. The application of each test composition was performed with pressurized back-pack sprayers, calibrated to spray 200 gallons per acre. Test compositions containing sulfentrazone (DISMISS™ Turf Herbicide), quniclorac, (FACET® 75 DF herbicide) or a mixture of sulfentrazone and quinclorac in a 1:3 ratio, prepared as described above, were diluted with water to provide the appropriate test rate concentrations.
The control of weeds was evaluated in each experimental plot from 7 to 41 days after treatment (DAT) of each test rate. The results, shown as an average of the replications, were compared with results observed in untreated control plots in the same trials.

[4] = test system: Hemp Sesbania (Sesbania exaltata); test: Example 4 post-emergence greenhouse pot test, hemp sesbania; conditions: 0.25 lb ai/acre
Description: as §4
as §1, with “develop for 22 days, 3 months for Kochia.” for “develop.”
as §2, with “Table 4” for “Table 3”, “from 2” for “from 1”, “to 20” for “to 22”
as §3

## Cc1nn(-c2cc(NS(C)(=O)=O)c(Cl)cc2Cl)c(=O)n1C(F)F [A, N-[2,4-dichloro-5-[4-(difluoromethyl)-4,5-dihydro-3-methyl-5-oxo-1H-1,2,4-triazol-1-yl]phenyl]methanesulfonamide]
[1]; 1-2 leaf stage, 11 days old, 0.125 lb ai/acre, 1 DAT
  Percent Control: 50%
[1]; 1-2 leaf stage, 11 days old, 0.125 lb ai/acre, 3 DAT
  Percent Control: 60%
[1]; 1-2 leaf stage, 11 days old, 0.125 lb ai/acre, 7 DAT
  Percent Control: 50%
[1]; 1-2 leaf stage, 11 days old, 0.125 lb ai/acre, 14 DAT
  Percent Control: 40%
[1]; 1-2 leaf stage, 11 days old, 0.125 lb ai/acre, 21 DAT
  Percent Control: 30%
[1]; 1-2 leaf stage, 11 days old, 0.25 lb ai/acre, 1 DAT
  Percent Control: 60%
[1]; 1-2 leaf stage, 11 days old, 0.25 lb ai/acre, 3 DAT
  Percent Control: 70%
[1]; 1-2 leaf stage, 11 days old, 0.25 lb ai/acre, 7 DAT
  Percent Control: 50%
[1]; 1-2 leaf stage, 11 days old, 0.25 lb ai/acre, 14 DAT
  Percent Control: 20%
[1]; 1-2 leaf stage, 11 days old, 0.25 lb ai/acre, 21 DAT
  Percent Control: 5%
[1]; 1-2 leaf stage, 11 days old, 0.375 lb ai/acre, 1 DAT
  Percent Control: 50%
[1]; 1-2 leaf stage, 11 days old, 0.375 lb ai/acre, 3 DAT
  Percent Control: 70%
[1]; 1-2 leaf stage, 11 days old, 0.375 lb ai/acre, 7 DAT
  Percent Control: 50%
[1]; 1-2 leaf stage, 11 days old, 0.375 lb ai/acre, 14 DAT
  Percent Control: 20%
[1]; 1-2 leaf stage, 11 days old, 0.375 lb ai/acre, 21 DAT
  Percent Control: 10%
[1]; 3-4 leaf stage, 1-2 tillers, 14 days old, 0.125 lb ai/acre, 1 DAT
  Percent Control: 25%
[1]; 3-4 leaf stage, 1-2 tillers, 14 days old, 0.125 lb ai/acre, 3 DAT
  Percent Control: 25%
[1]; 3-4 leaf stage, 1-2 tillers, 14 days old, 0.125 lb ai/acre, 7 DAT
  Percent Control: 30%
[1]; 3-4 leaf stage, 1-2 tillers, 14 days old, 0.125 lb ai/acre, 14 DAT
  Percent Control: 10%
[1]; 3-4 leaf stage, 1-2 tillers, 14 days old, 0.125 lb ai/acre, 21 DAT
  Percent Control: 5%
[1]; 3-4 leaf stage, 1-2 tillers, 14 days old, 0.25 lb ai/acre, 1 DAT
  Percent Control: 25%
[1]; 3-4 leaf stage, 1-2 tillers, 14 days old, 0.25 lb ai/acre, 3 DAT
  Percent Control: 25%
[1]; 3-4 leaf stage, 1-2 tillers, 14 days old, 0.25 lb ai/acre, 7 DAT
  Percent Control: 30%
[1]; 3-4 leaf stage, 1-2 tillers, 14 days old, 0.25 lb ai/acre, 14 DAT
  Percent Control: 12%
[1]; 3-4 leaf stage, 1-2 tillers, 14 days old, 0.25 lb ai/acre, 21 DAT
  Percent Control: 5%
[1]; 3-4 leaf stage, 1-2 tillers, 14 days old, 0.375 lb ai/acre, 1 DAT
  Percent Control: 20%
[1]; 3-4 leaf stage, 1-2 tillers, 14 days old, 0.375 lb ai/acre, 3 DAT
  Percent Control: 20%
[1]; 3-4 leaf stage, 1-2 tillers, 14 days old, 0.375 lb ai/acre, 7 DAT
  Percent Control: 22%
[1]; 3-4 leaf stage, 1-2 tillers, 14 days old, 0.375 lb ai/acre, 14 DAT
  Percent Control: 0%
[1]; 3-4 leaf stage, 1-2 tillers, 14 days old, 0.375 lb ai/acre, 21 DAT
  Percent Control: 0%
[2]; 2 DAT
  Percent Control: 30%
[2]; 7 DAT
  Percent Control: 30%
[2]; 14 DAT
  Percent Control: 10%
[2]; 20 DAT
  Percent Control: 0%
[3]; 7 DAT
  Percent Control: 83%
[3]; 14 DAT
  Percent Control: 88%
[3]; 21 DAT
  Percent Control: 100%
[3]; 28 DAT
  Percent Control: 100%
[4]; 2 DAT
  Percent Control: 70%
[4]; 7 DAT
  Percent Control: 85%
[4]; 14 DAT
  Percent Control: 90%
[4]; 20 DAT
  Percent Control: 90%
